Laboratory results taken from the NIST ThermoML archive (doi:10.1016/j.jct.2012.04.011).
Numbers after ± are expanded uncertainties.

Key:
[1] = refractive index (Na D-line) (dimensionless); conditions: 298.2 K; 101.33 kPa; Liquid; Standard Abbe refractometry
[2] = relative permittivity at zero frequency (dimensionless); conditions: 298.2 K; 101.33 kPa; Liquid; Parallel plate capacitor
[3] = 298.15 K; 101.33 kPa; Liquid; Vibrating tube method

SMILES: Cc1ccccc1 [toluene]
- refractive index [1]: 1.4938 ± 0.0007
- relative permittivity at zero frequency [2]: 2.38 ± 0.01
- mass density [3]: 862.02 ± 0.24 kg/m3

SMILES: C1CCCCC1 [cyclohexane]
- refractive index [1]: 1.4234 ± 0.0007
- relative permittivity at zero frequency [2]: 2.02 ± 0.01
- mass density [3]: 773.78 ± 0.24 kg/m3

SMILES: O [water]
- refractive index [1]: 1.3325 ± 0.0007

SMILES: CC1CCCCC1 [methylcyclohexane]
- refractive index [1]: 1.4198 ± 0.0007
- relative permittivity at zero frequency [2]: 2.01 ± 0.01
- mass density [3]: 764.92 ± 0.24 kg/m3
